According to publication PMC7205606, “Characterization of a toxin-antitoxin system in Mycobacterium tuberculosis suggests neutralization by phosphorylation as the antitoxicity mechanism” (Communications Biology, 2020):

Legend:
[1] = target: TakA (Rv1044), MBP-TakA (Mycobacterium tuberculosis, UniProt P96357)
[2] = target: TglT (Rv1045) (Mycobacterium tuberculosis, UniProt P96356)
Sequence of TglT (Rv1045) (P96356 1-293 limits assumed): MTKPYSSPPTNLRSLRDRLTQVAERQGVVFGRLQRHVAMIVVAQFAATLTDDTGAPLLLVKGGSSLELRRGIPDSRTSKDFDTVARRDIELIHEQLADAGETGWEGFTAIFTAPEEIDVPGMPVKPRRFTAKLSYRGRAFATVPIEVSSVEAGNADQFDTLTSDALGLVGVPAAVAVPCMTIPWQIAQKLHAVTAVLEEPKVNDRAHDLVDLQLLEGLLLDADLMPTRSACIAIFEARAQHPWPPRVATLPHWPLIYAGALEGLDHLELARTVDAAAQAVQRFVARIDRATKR

Sequence of TakA (Rv1044), MBP-TakA (P96357 entry or part of it): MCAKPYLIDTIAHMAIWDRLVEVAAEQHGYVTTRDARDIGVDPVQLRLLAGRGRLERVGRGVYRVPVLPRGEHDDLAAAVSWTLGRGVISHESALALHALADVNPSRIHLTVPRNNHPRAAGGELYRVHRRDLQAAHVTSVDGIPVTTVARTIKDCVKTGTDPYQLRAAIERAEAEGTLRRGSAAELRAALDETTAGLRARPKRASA

Row | Compound | in vitro kinase assay, 32P transfer to TglT, SDS-PAGE [1] | native-PAGE autoradiography with unlabelled NTP competition [2]
1 | Nc1ncnc2c1ncn2[C@@H]1O[C@H](COP(=O)(O)OP(=O)(O)OP(=O)(O)O)[C@@H](O)[C@H]1O [ATP] | When incubating MBP-TakA with TglT (Fig. 5a), we detected radioactively labeled TglT species in SDS-PAGE. | –
2 | Nc1nc2c(ncn2[C@@H]2O[C@H](COP(=O)(O)OP(=O)(O)OP(=O)(O)O)[C@@H](O)[C@H]2O)c(=O)[nH]1 [GTP] | – | We conclude that TglT specifically binds GTP.
